What was measured:
avidin [1] = target: T1, avidin (Gallus gallus, UniProt P02701); test: isothermal titration calorimetry; co-crystal structure […] Å; type: binding
T1 construct: gene AVD; homotetramer by known biology (monomers A and C mentioned)

avidin [2] = target: T1, avidin; test: isothermal titration calorimetry; HABA assay; type: binding

T1 sequence (P02701 25-152): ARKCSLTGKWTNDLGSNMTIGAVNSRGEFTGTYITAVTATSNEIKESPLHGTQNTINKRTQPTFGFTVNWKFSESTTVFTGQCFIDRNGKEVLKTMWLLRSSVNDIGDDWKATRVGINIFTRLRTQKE

Compound | Kd (avidin [1]) [nM] | Kd (avidin [2]) [nM]
O=C(CCCC[C@@H]1SC[C@@H]2NC(=O)N[C@@H]21)NCCc1cc([N+](=O)[O-])ccc1O [compound 7] | 225 | –
CC(C)Cn1cnc2c(NC(=O)OCCOC(=O)Oc3ccc([N+](=O)[O-])cc3CCNC(=O)CCCC[C@@H]3SC[C@@H]4NC(=O)N[C@@H]43)nc3ccccc3c21 [compound 8, LDNPC (8)] | – | 104

From PMC7702144, “A Ligand-Directed Nitrophenol Carbonate for Transient in situ Bioconjugation and Drug Delivery” (ChemMedChem, 2020)
